Experimental data: PubChem BioAssay (NCI)
Several values for one entry are separate records, joined by “and”; a condition that tells them apart may be missing. Equal entries are not always repeated.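 Dose response: 5 concentrations. Exposure: 48 h. Format: 96-well plates. Endpoint: linear interpolation; highest concentration if not reached. GI50: concentration for 50% inhibition of growth. The concentration for full growth arrest is given as TGI.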

How the values were obtained:
Assay in all cases: growth of human tumour cells (NCI), 48 h
786-0 renal = tested on: 786-0 renal
HOP-62 NSCLC = tested on: HOP-62 NSCLC
NCI-H226 lung = tested on: NCI-H226 lung
NCI-H460 lung = tested on: NCI-H460 lung
OVCAR-3 ovarian = tested on: OVCAR-3 ovarian
OVCAR-4 ovarian = tested on: OVCAR-4 ovarian
OVCAR-5 ovarian = tested on: OVCAR-5 ovarian
OVCAR-8 ovarian = tested on: OVCAR-8 ovarian
SK-OV-3 ovarian = tested on: SK-OV-3 ovarian
SW-620 colon = tested on: SW-620 colon

| SMILES | GI50 (786-0 renal) [µM] | TGI (786-0 renal) | GI50 (HOP-62 NSCLC) [µM] | TGI (HOP-62 NSCLC) | TGI (NCI-H226 lung) [µM] | GI50 (NCI-H460 lung) [µM] | TGI (NCI-H460 lung) | TGI (OVCAR-3 ovarian) [µM] | TGI (OVCAR-4 ovarian) [µM] | GI50 (OVCAR-5 ovarian) [µM] | TGI (OVCAR-5 ovarian) | GI50 (OVCAR-8 ovarian) [µM] | TGI (OVCAR-8 ovarian) | GI50 (SK-OV-3 ovarian) [µM] | TGI (SK-OV-3 ovarian) | TGI (SW-620 colon) | GI50 (NCI-H226 lung) [µM] | GI50 (OVCAR-3 ovarian) [µM] | GI50 (OVCAR-4 ovarian) [µM] | GI50 (SW-620 colon) [µM] |
| --- | --- | --- | --- | --- | --- | --- | --- | --- | --- | --- | --- | --- | --- | --- | --- | --- | --- | --- | --- | --- |
| Cc1ccc2oc(=O)c3c(O)c4cccc(OC5OC(C)C6O[C@@H](c7ccccc7)OC6C5OC5OC(C)C(O)C(O)C5O)c4c4oc(=O)c1c2c34 (some centres not stated) | 0.0447 | 1.09 µM and 1.91 µM | 0.105 | 1.6 µM and 0.734 µM | 0.211 | 0.00467 | 1.03 µM and 0.545 µM | 3.96 | 3.53 | 0.218 | 1.13 µM and 2.7 µM | 0.0562 | 2.74 µM and 1.43 µM | 0.371 | 0.967 µM and 2.41 µM | 2.43 µM and 7.53 µM |  |  |  |  |
| CCOC(=O)[C@@]12C(C)=CC(=O)O[C@]1(C)C1C(=O)NC(=O)C12 (some centres not stated) |  | > 100 µM |  | > 100 µM | > 100 |  | > 100 µM | > 100 | > 100 |  |  |  | > 100 µM |  | > 100 µM | > 100 µM |  |  |  |  |
| O=C(O)COc1ccc(OCC(=O)O)cc1 | 0.456 | 3.62 µM | 0.408 | 8.53 µM | 0.789 | 0.0609 | 1.51 µM | 36.3 | 20.3 | 1.43 | 24.8 µM | 0.911 | 10.8 µM | 0.644 | 19.8 µM | 12.8 µM | 0.19 | 2.5 | 2.96 | 0.312 |
| Cc1cc(Cl)cc2c1NC(=O)C2(O)CC(=O)c1ccc(Br)cc1 (configuration not stated) |  | > 100 µM |  | > 100 µM | > 100 |  | > 100 µM | > 100 | > 54.6 |  | > 100 µM |  | > 100 µM |  | > 100 µM | > 100 µM |  |  |  |  |
| COc1ccc(Nc2ncnc3ccc(-c4cncc(NS(C)(=O)=O)c4)cc23)cc1Cl | 2.99 | 13 µM | 2.64 | 22.6 µM | 18.1 | 4.11 | 17 µM | 4.78 | 83.1 | 2.87 | 29 µM | 3.62 | 16.5 µM | 2.49 | 6.93 µM | 12.4 µM | 2.69 | 1.66 | 4.22 | 3.23 |
| COc1ccc(CSC2=C(C#N)C(=O)NC3(CCCCC3)S2)cc1 |  | > 100 µM |  | > 100 µM | > 100 |  | > 100 µM | > 82.1 | > 100 |  | > 100 µM |  | > 100 µM |  | > 100 µM | > 100 µM |  |  |  |  |
| O=C(c1ccccc1)c1nnn(Cc2ccccc2Cn2nnc(C(=O)c3ccccc3)c2C(=O)c2ccccc2)c1C(=O)c1ccccc1 |  | > 100 µM |  | > 100 µM | > 100 |  | > 100 µM | > 100 | > 100 |  | > 100 µM |  | > 100 µM |  | > 100 µM | > 100 µM |  |  |  |  |
| Cc1ccc(N2C(=O)/C(=C/c3ccc(N(CCC#N)CCC#N)cc3)N=C2COc2ccc(Cl)cc2Cl)cc1 |  | > 100 µM |  | > 100 µM | > 100 |  | > 100 µM | > 100 | > 100 |  | > 100 µM |  | > 100 µM |  | > 100 µM | > 100 µM |  |  |  |  |
| Brc1cc(C2OCCCO2)ccc1OCc1ccccc1 |  | > 100 µM |  | > 100 µM | > 100 |  | > 100 µM | > 100 | > 100 |  | 92.5 µM |  | > 100 µM |  | > 100 µM | > 100 µM |  |  |  |  |
| CC(C)C[C@H](NC(=O)Cn1cccc(CNC(=O)c2ccccc2)c1=O)B(O)O | 1.06 | > 61.5 µM | 1.21 | 6.38 µM | 0.457 | 2.65 | 15.8 µM | 0.674 | > 77 | 2.76 | 38.9 µM | 4.23 | > 85.7 µM | 1.2 | 41 µM | 6.85 µM | 0.202 | 0.214 | 0.897 | 0.345 |
| CN1CCC(c2c(O)cc(O)c3c(=O)cc(-c4ccccc4Cl)oc23)C(O)C1 (configuration not stated) |  | > 100 µM |  |  | 0.305 |  | > 100 µM | 0.0223 | 0.473 | 0.0687 | 0.602 µM |  |  |  | > 73.4 µM | > 100 µM |  | < 0.01 |  | 0.0532 |
| COc1c(OC)c(OC)c2c(=O)cc(-c3ccc(OC(C)C)cc3)oc2c1OC |  | > 49.3 µM |  | 37.5 µM | 32.3 |  | > 56.6 µM | 44.6 | > 49.2 |  | > 51.9 µM |  | 49.5 µM |  | > 50.5 µM | > 58.8 µM |  |  |  |  |
| CC1=NN(c2ccccc2)C(=O)C12[C@H](c1ccccc1)C2(C#N)C#N (some centres not stated) |  | 6.18 µM |  | 31.1 µM | 26.3 |  | 41.5 µM | 19.5 | 17.5 |  | 24.2 µM |  | 7.27 µM |  | 32.7 µM | 3.84 µM |  |  |  |  |
| O=C1CC(c2cccc(Cl)c2)Oc2ccccc21 (configuration not stated) |  | 39.5 µM |  | 32.6 µM | 41.3 |  | 42.1 µM |  | 94.1 |  |  |  | 53.8 µM |  | 46 µM | 72.1 µM |  |  |  |  |
| CCC1CCCCN1CC(C(C)=O)C(c1ccccc1)c1c(O)c2ccccc2oc1=O (configuration not stated) |  | > 100 µM |  | > 100 µM | > 100 |  | > 100 µM | > 100 | > 100 |  | > 100 µM |  | > 100 µM |  | > 100 µM | > 100 µM |  |  |  |  |
| O=[N+]([O-])c1cc(/C=N\NS(=O)(=O)c2ccc(Cl)cc2)c(O)c([N+](=O)[O-])c1 |  | > 100 µM |  | > 100 µM |  |  | 54.4 µM | 54.1 | > 100 |  | > 100 µM |  | 64.5 µM |  | 83.5 µM | > 100 µM |  |  |  |  |
| O=C1OC(=O)C23CSCC12C1C=CC3O1 (configuration not stated) |  | > 100 µM |  | > 100 µM | > 100 |  | > 100 µM | > 100 |  |  | > 100 µM |  | > 100 µM |  | > 100 µM | > 100 µM |  |  |  |  |
| O=c1cc[nH]cc1-c1c[nH]ccc1=O |  | > 100 µM |  |  | > 100 |  | > 100 µM | > 100 |  |  |  |  | > 100 µM |  | > 100 µM | > 100 µM |  |  |  |  |
| O=c1c2ccccc2oc2ccccc12 (tested in a mixture with another compound) |  | > 100 µM |  | > 100 µM |  |  | 25.9 µM | > 100 | > 100 |  |  |  | > 100 µM |  | 62.5 µM | > 100 µM |  |  |  |  |
